Where a name gives a salt, the structure may show the parent alone.
Legend:
MOLM-14 cell line [1] = assay: CellTiter-Glo cell viability / growth inhibition assay, MOLM-14 (Example 5); assay type: cell-based; conditions: Homo sapiens, 72 h; for viability at 4 µM / viability at 10 µM: MOLM-14
Experimental: (§1) All cell lines were maintained in medium containing 1% penicillin-streptomycin (Dutscher, P06-07100) and 10% Fetal Bovine Serum (Gibco, W3387L) except 20% for KG-1 cell line and PBMC, and cultured at 37° C. with 5% CO2.
MOLM-14 cell line was maintained in MEM alpha medium (Gibco, 22561-021).
(§2) Cell viability was measured using the CellTiter-Glo® luminescent cell viability assay as described by the manufacturer (Promega, Ref G7571) using an Infinite F200Pro luminometer (Tecan). Briefly, for adherent cells, cells were plated onto 96-well plates (white with clear bottom) in 90 μL of media per well and were allowed to grow overnight before the assay. For cells growing in suspension, cells were plated onto 96-well plates immediately before the assay.
Compounds were added at different concentrations to each well, and cell cultures were incubated for 72 h. Vehicle (H2O) was used as a control, and all compounds were tested in a constant percentage of H2O. After addition of 100 μL of CellTiter-Glo®, luminescence was measured using an Infinite F200Pro (Tecan). EC50 values were determined as the dose of compound required to reduce luminescent values to 50% of the signal obtained for untreated cell cultures. The experimental data were analyzed using a computer program, Graphpad Prism v5 (GraphPad Software, Inc. La Jolla, Calif.).
All experiments were at least done in duplicate and repeated two independent times.

786-O cell line = assay: CellTiter-Glo growth inhibition assay, 786-O; assay type: cell-based; conditions: Homo sapiens, 786-0, 72 h
Experimental: (§3) CAKI-1 and 786-0 cell lines were maintained in RPMI 1640 medium (Dutscher, L0498) containing 1% penicillin-streptomycin (Dutscher, P06-07100) and 10% Fetal Bovine Serum (Gibco, W3387L) and cultured at 37° C. with 5% CO2.
(§4) Cell viability was measured using the CellTiter-Glo® luminescent cell viability assay as described by the manufacturer (Promega, Ref G7571) using an Infinite F200Pro luminometer (Tecan). Briefly, cells were plated onto 96-well plates (white with clear bottom) in 90 μL of media per well and were allowed to grow overnight before the assay.
(§5) Compounds 2-3 and two reference compounds (Sorafenib and Sunitinib) were added at different concentrations to each well, and cell cultures were incubated for 72 h. For compound 2-3 analysis, H2O was used as a negative control (=untreated) and all concentrations were tested in a constant percentage of H2O. For Sorafenib and Sunitinib analysis, DMSO was used as a negative control (=untreated) and all concentrations were tested in a constant percentage of DMSO. 72 h after incubation of compounds, 100 μL of CellTiter-Glo® were added to each well and luminescence was measured using an Infinite F200Pro (Tecan). EC50 values were determined as the dose of compound required to reduce luminescent values to 50% of the signal obtained for untreated cell cultures. The experimental data were analyzed using a computer program, Graphpad Prism v5 (GraphPad Software, Inc. La Jolla, Calif.). All experiments were at least done in triplicate and repeated at least three independent times.

CAKI-1 cell line = assay: CellTiter-Glo growth inhibition assay, CAKI-1; assay type: cell-based; conditions: Homo sapiens, CAKI-1, 72 h
Experimental: as §3, §4, §5

A375 cell line = assay: CellTiter-Glo growth inhibition assay, A375; assay type: cell-based; conditions: Homo sapiens, A-375; A375, malignant melanoma, 72 h
Experimental: as §1
(§6) HepG2, Huh7, HCT-116, MDA-MB-231 and A375 cell lines were cultured in Dulbecco's modified Eagle's medium (Dutscher, L0103).
as §2
(§7) Compounds were added at different concentrations to each well, and cell cultures were incubated for 72 h. Vehicle (H2O) was used as a control, and all compounds were tested in a constant percentage of H2O. After addition of 100 μL of CellTiter-Glo®, luminescence was measured using an Infinite F200Pro (Tecan). EC50 values were determined as the dose of compound required to reduce luminescent values to 50% of the signal obtained for untreated cell cultures. The experimental data were analyzed using a computer program, Graphpad Prism v5 (GraphPad Software, Inc. La Jolla, Calif.). […]

HCT-116 cell line = assay: CellTiter-Glo growth inhibition assay, HCT-116; assay type: cell-based; conditions: Homo sapiens; HCT-116, colorectal carcinoma, 72 h
Experimental: as §1, §6, §2, §7

HepG2 cell line = assay: CellTiter-Glo growth inhibition assay, HepG2; assay type: cell-based; conditions: Homo sapiens; HepG2, hepatocellular carcinoma, 72 h
Experimental: as §1, §6, §2, §7

[2] = system: LI0574 HCC patient derived cells; assay: CellTiter-Glo growth inhibition, HCC patient-derived cells LI0574; assay type: cell-based, human; conditions: LI0574, 72 hours
Experimental: (§8) The patient derived Hepatocellular Carcinoma (HCC) cells were maintained in medium respectively described in table 15 containing 1% penicillin-streptomycin (Life Technologies, 15070-063), with a supplements for primary cell culture (PCS) containing hydrocortisone (50 nM), Epidermal Growth Factor (20 ng/ml), β-fibroblast Growth Factor (10 ng/ml), Heparin (2 μg/ml) ITS liquid media supplement (1×) and non-essential amino acid (NEAA, 0.01 mM, 1×). The primary cell were cultured in a humidified atmosphere (95% relative humidity) with 5% CO2 at 37° C.
(§9) The cell growth inhibition assay was performed as described previously in example 5 using the CellTiter-Glo® luminescent cell viability assay as described by the manufacturer (Promega, Ref G7571). The number of cells seeded per well (in 96-Well Flat Clear Bottom Black Polystyrene TC-Treated Microplates, Cat #3340, Corning®) is described in the table 16. A backseal black sticker (Cat #6005189, Perkin Elmer) was placed to the bottom of each plate before recording CellTiter-Glo® luminescence.
(§10) The experimental data are analyzed using a computer program, Graphpad Prism V 5.0 (GraphPad Software, Inc. La Jolla, Calif.) and EC50 values were determined as the dose of compound required to reduce absorbance values to 50% of the signal obtained for vehicle treated cell cultures and were a mean of at least three independent experiments.

[3] = system: LI0050 HCC patient derived cells; assay: CellTiter-Glo growth inhibition, HCC patient-derived cells LI0050; assay type: cell-based, human; conditions: LI0050, 72 hours
Experimental: as §8, §9, §10

[4] = system: LI0612 HCC patient derived cells; assay: CellTiter-Glo growth inhibition, HCC patient-derived cells LI0612; assay type: cell-based, human; conditions: LI0612, 72 hours
Experimental: as §8, §9, §10

[5] = system: LI1646 HCC patient derived cells; assay: CellTiter-Glo growth inhibition, HCC patient-derived cells LI1646; assay type: cell-based, human; conditions: LI1646, 72 hours
Experimental: as §8, §9, §10

[6] = system: LI0801 HCC patient derived cells; assay: CellTiter-Glo growth inhibition, HCC patient-derived cells LI0801; assay type: cell-based, human; conditions: LI0801, 72 hours
Experimental: as §8, §9, §10

[7] = system: LI1005 HCC patient derived cells; assay: CellTiter-Glo growth inhibition, HCC patient-derived cells LI1005; assay type: cell-based, human; conditions: LI1005, 72 hours
Experimental: as §8, §9, §10

[8] = system: LI1098 HCC patient derived cells; assay: CellTiter-Glo growth inhibition, HCC patient-derived cells LI1098; assay type: cell-based, human; conditions: LI1098, 72 hours
Experimental: as §8, §9, §10

[9] = system: LI0752 HCC patient derived cells; assay: CellTiter-Glo growth inhibition, HCC patient-derived cells LI0752; assay type: cell-based, human; conditions: LI0752, 72 hours
Experimental: as §8, §9, §10

MOLM-14 cell line [10] = assay: CellTiter-Glo growth inhibition assay, MOLM-14 (Example 6); assay type: cell-based, human; conditions: MOLM-14, 72 h, method of Example 6
Experimental: MOLM-14 cell line was cultured in MEM alpha medium supplemented with 10% v/v Fetal Bovine Serum, 1% Penicillin-Streptomycin and maintained at 37° C. with 5% CO2. 10,000 cells were plated onto 96-well plates immediately before the assay.
Each compound was added at different concentrations (combinations of six concentrations) to each well, and cell cultures were incubated for 72 h. Vehicle (H2O) was used as a control, and all compounds were tested in a constant percentage of vehicle. Cell outgrowth was measured using the CellTiter-Glo® luminescent cell viability assay as described by the manufacturer (Promega, Ref G7571 Madison, Wis., USA) using a Centro (Berthold, France) plate reader.
In each experiment, each point represents the average of triplicates in cell culture.
The experimental data are analyzed using a computer program, Graphpad Prism v5 (GraphPad Software, Inc. La Jolla, Calif.) and EC50 values were determined as the dose of compound required to reduce absorbance values to 50% of the signal obtained for vehicle treated cell cultures.

[11] = system: ALDH+ (CSC) population of MOLM-14 cell line; assay: Aldefluor kit assay, ALDH+ compartment in MOLM-14; assay type: cell-based, human; conditions: 72 h, control = 100
Description: Analysis of the of aldehyde dehydrogenase (ALDH) compartment and high activity level of aldehyde dehydrogenase activity (ALDH+) was used to detect tumor initiating cells (cancer stem cells, CSC) population. The Aldefluor™ kit assay (StemCell Technologies, 01700) allowed to assess the activity of drugs on CSC cells like in a MOLM-14 acute myeloid leukemia cell line population (ref: Storms, R. W., Trujillo, A. P., Springer, J. B., Shah, L., Colvin, O. M., Ludeman, S. M., & Smith, C. (1999). Isolation of primitive human hematopoietic progenitors on the basis of aldehyde dehydrogenase activity. Proceedings of the National Academy of Sciences, 96(16), 9118-9123). The Aldefluor™ kit assay was used according to the procedure described by the manufacturer. Briefly, MOLM-14 cell line was cultured in MEM alpha medium supplemented with 10% v/v Fetal Bovine Serum, 1% Penicillin-Streptomycin and maintained at 37° C. with 5% CO2. 5·10^5 cells were used in this assay. Each compound was added at different concentrations (see table 8), and cell cultures were incubated for 72 h. Vehicle (H2O) was used as a control, and all compounds were tested in a constant percentage of vehicle. Cells obtained from cell culture were incubated for 45 minutes at 37° C. with Aldefluor™ buffer assay containing the Bodipy™-aminoacetaldehyde, a fluorescent ALDH aldehyde substrate. ALDH converts the fluorescent substrate BAAA to the Bodipy™-aminoacetic acid (BAA) which is retained in the cell. An active efflux inhibitor is present in the Adelfluor™ assay buffer in order to avoid the active efflux from the cell of the substrate product ALDH dependent converted BAA. The fluorescent signal is directly proportional to the ALDH activity in the cells and is measured by flow cytometry. A negative control is used to measure the background fluorescence level. For such purpose, 4-(N,N-diethylamino)-benzaldehyde (DEAB) was used as selective ALDH inhibitor. A viability cell count was performed using LIVE/DEAD® Fixable Far Red Dead Cell Stain Kit (Invitrogen). The experimental data are analyzed using a computer program, Graphpad Prism v5 (GraphPad Software, Inc. La Jolla, Calif.) and EC50 values were determined as the dose of compound required to reduce absorbance values to 50% of the signal obtained for vehicle treated cell cultures.

Structure (SMILES): Cc1cc(Nc2cc(N3CCC(NC(C)(C)C)CC3)c3ccccc3n2)ccc1Nc1ncccn1 [Compound 3-5, 2-[3-methyl-4-(pyrimidin-2-ylamino)phenylamino]-4-(4-tert-butylaminopiperidin-1-yl)-quinoline hydrochloride salt]
- viability at 4 µM (MOLM-14 cell line [1]): 78.7%
- viability at 10 µM (MOLM-14 cell line [1]): 8.7%

Structure (SMILES): CC(C)(C)NC1CCN(c2cc(Nc3ccc(Cl)cc3)nc3ccccc23)CC1 [Compound 1-6, 2-(4-chlorophenylamino)-4-(4-tert-butylaminopiperidin-1-yl)-quinoline hydrochloride salt]
- viability at 4 µM (MOLM-14 cell line [1]): 71.8%
- viability at 10 µM (MOLM-14 cell line [1]): 12.1%

Structure (SMILES): CCN(CC)CCNC(=O)c1c(C)[nH]c(/C=C2\C(=O)Nc3ccc(F)cc32)c1C [Sunitinib]
- EC50 (786-O cell line): 6 µM
- EC50 (CAKI-1 cell line): 1.7 µM

Structure (SMILES): Cc1cc(Nc2cc(N3CCC(NC(C)(C)C)CC3)c3ccccc3n2)ccc1Nc1nccc(-c2cccnc2)n1 [Compound 4-3, 2-{4-[4-(pyridin-3-yl)-2-pyrimidinamino]-3-methyl-phenylamino}-4-(4-tert-butylaminopiperidin-1-yl)-quinoline hydrochloride salt]
- EC50 (A375 cell line): 1.4 µM
- viability at 4 µM (MOLM-14 cell line [1]): 0.5%
- viability at 10 µM (MOLM-14 cell line [1]): 0.2%
- EC50 (MOLM-14 cell line [1]; MOLM-14, acute myeloïd leukemia, FLT3-ITD heterozygote+/−): 2.3 µM
- EC50 (HCT-116 cell line): 1.8 µM
- EC50 (HepG2 cell line): 6.3 µM

Structure (SMILES): CNC(=O)c1cc(Oc2ccc(NC(=O)Nc3ccc(Cl)c(C(F)(F)F)c3)cc2)ccn1 [Sorafenib]
- EC50 ([2]; Homo sapiens): 8.7 µM
- EC50 ([3]; Homo sapiens): 9.1 µM
- EC50 ([4]; Homo sapiens): 17.9 µM
- EC50 ([5]; Homo sapiens): 10.3 µM
- EC50 (786-O cell line): 6.8 µM
- EC50 ([6]; Homo sapiens): 5.7 µM
- EC50 (CAKI-1 cell line): 4.5 µM
- EC50 ([7]; Homo sapiens): 14.5 µM
- EC50 ([8]; Homo sapiens): 10.9 µM
- EC50 ([9]; Homo sapiens): 6.3 µM

Structure (SMILES): N.N.[Cl][Pt][Cl] [Cisplatin]
- EC50 [2]: 3.6 µM
- EC50 [3]: 1.3 µM
- EC50 [4]: 16.3 µM
- EC50 [5]: 10 µM
- EC50 [6]: 1.5 µM
- EC50 [7]: 5.9 µM
- EC50 [8]: 5.1 µM
- EC50 [9]: 2.6 µM

Structure (SMILES): Nc1ccn([C@@H]2O[C@H](CO)[C@@H](O)[C@@H]2O)c(=O)n1 [Cytarabin, reference compound]
- EC50 (MOLM-14 cell line [10]): 0.29 µM
- ALdefluor positive CSCs (%) ([11]; MOLM-14, 1 μM): 130%
- ALdefluor positive CSCs (%) ([11]; MOLM-14, 3 μM): 116%
